From publication PMC11385697, “Bibacillin 1: a two-component lantibiotic from Bacillus thuringiensis” (RSC Chemical Biology, 2024)

Experiments:
rabbit erythrocytes [1] = experiment: Agar diffusion hemolysis assay; assay type: cell-based; conditions: 300 pmol peptide spotted (3 μL of 100 μM in PBS); 5% (v/v) rabbit erythrocytes in 0.7% BHI agar; 37 °C, 16 h; mixtures 1 : 1
Experimental: Cytolysin was used as a positive control.
Defibrinated rabbit erythrocytes (Hemostat) were washed by 5-fold dilution in cold sterile PBS, followed by centrifugation at 1000g for 10 min and decanting. This process was repeated until the supernatant was clear. The washed erythrocytes were diluted to a concentration of 5% (v/v) in molten BHI containing 0.7% agar cooled to 50 °C and the mixture was immediately deposited onto a warm 2% BHI agar plate. After setting at room temperature for at least 30 min, 3 μL of peptide solution diluted in PBS to a concentration of 100 μM was deposited onto the agar plate and the plate was allowed to stand for another 30 min. The plate was then incubated at 37 °C for 16 h before documentation.

rabbit erythrocytes [2] = assay type: cell-based; conditions: total peptide concentration 2 μM; 1 h at 37 °C; mixture 1 : 1
Experimental: Solution phase hemolysis assays were conducted as described previously.[36]
Fig. S2. […] A) Hemoglobin release […]
erythrocytes were treated with 0.03% v/v triton X-100. Negative control contained only buffer. A total peptide concentration of 2 µM was used in each case. B) Extent of hemolysis after treating freshly washed rabbit erythrocytes with 1:1 of CylLS”:CylLL” at 37 ̊C for 1 h. Data was fit to a […]
(1 picture or pasted object on this page, not shown here)

M. luteus ATCC 4698 [3] = experiment: Time-kill assay; assay type: cell-based, Micrococcus luteus; conditions: total peptide 20 μM, 30 °C; for killing activity in time-kill assay: mixture 1 : 1
Experimental: The solutions were incubated at 30 °C with shaking. At each time point, 20 μL was removed from each culture and immediately streaked onto tryptic soy broth agar plates. The plates were incubated at 30 °C for 36–48 h and colonies were counted.

[4] = system: T1, lipid II consumption by E. coli PBP1b; experiment: In vitro peptidoglycan synthesis assay with lipid II substrate (TLC); assay type: biochemical; conditions: 4 equivalents of peptide relative to lipid II; 30 °C, 2 h; thin layer chromatography; mixture 1 : 1
T1 construct: made in house
Experimental: A solution of lipid II (1.5 nmol) in 1 : 1 CHCl3 : MeOH that was prepared by a previously disclosed procedure[87] was added to a low binding Eppendorf tube and concentrated to remove any organic solvent. Triton X-100 (1% v/v, 2 μL) was added to the residue and the mixture was sonicated briefly before diluting with 37.5 μL of reaction buffer (20 mM MES, 2 mM MgCl2, 2 mM CaCl2, pH = 5.5). The solution was then transferred to a new low binding Eppendorf tube containing lanthipeptide. The mixture was vortexed and briefly sonicated to ensure dissolution. The mixtures were incubated for 10 min at room temperature before adding PBP1b (6 μg), which was prepared as described elsewhere,[77] and then incubated at 30 °C. After 2 h, 150 μL nBuOH : AcOH-pyridine (2 : 1) was added to the reaction mixture and the organic layer was removed, washed with 40 μL of water and then concentrated. The residue was dissolved in 12 μL of 1 : 1 MeOH : CHCl3 and 3 μL was deposited onto a silica gel plate. The TLC plate was developed in mobile phase (88 : 48 : 10 : 1 CHCl3 : MeOH : H2O : NH4OH) for 10 min before drying and staining the plate with cerium ammonium sulfate. The plate was documented immediately after the staining procedure was completed.

[5] = In vitro pore formation assay, pyranine-encapsulated liposomes; conditions: total peptide 5 μM; for pore formation activity in liposomes: pH-dependent pyranine fluorescence, DOPC liposomes
Experimental: To investigate the lipid II-dependence of the pore formation activity of bibacillin 1, pyranine-encapsulated liposomes were prepared containing or lacking lipid II and pore formation was monitored via pH-dependent pyranine fluorescence.[79]
This assay was conducted as described elsewhere.[79]

[6] = Dynamic light scattering of aggregates; assay type: physicochemical; conditions: phosphate buffered saline pH = 7.4, room temperature, total peptide 1 μM; for average diameter of aggregates (DLS): SDS-free
Experimental: Fig. 6 Exploring the quorum sensing mechanism of bibacillin 1. (A) Assays to assess whether bibacillin 1 triggers the CylR1/R2 system. A reporter strain of E. faecalis with LacZ expression under the control of the CylR1/R2 system was seeded into soft agar containing X-gal. Next, 300 pmol of Bib1α, Bib1β, and Bib1βDha either separately or as 1 : 1 mixtures were deposited onto the soft agar layer. Nisin (300 pmol) and CylLS′′ (30 pmol) were used as negative and positive controls, respectively. (B) Size distributions obtained using dynamic light scattering showing the oligomeric states of Bib1α, Bib1β, and Bib1α : Bib1β (1 : 1) in phosphate buffered saline (pH = 7.4) at room temperature. In each case, the total peptide concentration was 1 μM.
Enzyme mixtures used for molecular biology were purchased from New England BioLabs (NEB) (Ipswich, MA). Chemicals were purchased from Sigma-Aldrich (St. Louis, MO). Growth media were purchased from Becton, Dickinson and Company (Franklin Lake, NJ) or Fisher Scientific (Pittsburgh, PA). Single stranded DNA used as primers for PCR were purchased from Integrated DNA Technologies (Newark, NJ). Gene fragments were purchased from Twist Bioscience (San Francisco, CA). The sequences of primers and gene fragments can be found in Tables S2 and S3 (ESI ^†), respectively. Whole plasmid sequencing was performed by Plasmidsaurus using Oxford Nanopore Technology with custom analysis and annotation. Matrix-assisted laser desorption/ionization time-of-flight mass spectrometry (MALDI-TOF MS) analysis was performed on a Bruker UltrafleXtreme MALDI-TOF mass spectrometer (Bruker Daltonics) at the University of Illinois School of Chemical Sciences Mass Spectrometry. All samples analyzed by MALDI-TOF MS were co-crystallized with Super DHB MALDI matrix purchased from Sigma-Aldrich. Semi-preparative reversed phase HPLC (R-HPLC) was performed on an Agilent 1260 infinity II LC system. Fluorescence emission intensities and optical densities were determined using a Biotek Synergy H4. Dynamic light scattering (DLS) analysis was performed on a Zetasizer Nanoseries (Malvern Panalytical,). CylLS′′ and CylLL′′ were prepared using a previously described procedure.[36] Nisin was isolated from commercially available crude extracts of Lactococcus lactis (Sigma Aldrich).

[7] = SDS-PAGE analysis of oligomerization; assay type: physicochemical; conditions: in the presence of SDS
Experimental: To determine whether bibacillin 1 could quorum sense through an aggregation mechanism, the aggregation propensity of bibacillin 1 was analyzed using SDS-PAGE and dynamic light scattering (DLS). […] Since SDS can influence aggregation, the aggregation of bibacillin 1 was further investigated under SDS-free conditions using DLS (Fig. 6B). Bib1α exists in solution as aggregates that are 159 nm in diameter on average (PDI = 0.224) and Bib1β forms aggregates that are 291 nm in diameter on average (PDI = 0.384). […] Confirmation of this hypothesis will require in vitro studies with Bib1R1/R2.

M. luteus ATCC 4698 [8] = experiment: Membrane depolarization assay, DiSC3(5); conditions: DiSC3(5) fluorescence; M. luteus OD600 = 0.2; 30 min; peptides individually
Experimental: (B) DiSC3(5) fluorescence signal after incubation of M. luteus (OD600 = 0.2) with Bib1α or Bib1β individually or as a 1 : 1 mixture for 30 min. […] In all cases, a total peptide concentration of 5 μM was used.
The mixture was transferred to a 96-well black plate and the fluorescence of DiSC3(5) was measured using an excitation wavelength of 622 nm and an emission wavelength of 670 nm throughout the experiment. The fluorescence signal was measured for 8 min prior to the addition of peptides. After adding peptides, the fluorescence signal was monitored for 30 min. The maximum fluorescence signal achieved over the entire course of the experiment was considered to be a metric of membrane depolarization activity and was plotted as a function of peptide concentration.

## C=C(NC(=O)[C@H](Cc1ccccc1)NC(=O)CNC(=O)[C@H](CC(C)C)NC(=O)[C@H](C)NC(=O)[C@H](CC(C)C)NC(=O)CNC(=O)CNC(=O)CNC(=O)[C@@H](NC(=O)[C@H](C)NC(=O)[C@@H]1CS[C@H](C)[C@H](N)C(=O)NC(=CC)C(=O)N2CCC[C@H]2C(=O)N[C@@H](C(C)C)C(=O)N1)[C@@H](C)CC)C(=O)N[C@H](C(=O)N[C@@H]1CSC[C@@H](C(=O)O)NC(=O)[C@H](Cc2ccc(O)cc2)NC(=O)[C@H]([C@@H](C)CC)NC(=O)[C@H](CCCCN)NC1=O)[C@@H](C)CC [Bib1βDha]
Rabbit erythrocytes [1]
  hemolytic activity on an agar plate: did not show any hemolytic activity beyond that of a negative control

## CC=C1NC(=O)[C@@H](N)[C@@H](C)SC[C@@H](C(=O)N[C@@H](C)C(=O)N[C@H](C(=O)NCC(=O)NCC(=O)NCC(=O)N[C@@H](CC(C)C)C(=O)N[C@@H](C)C(=O)N[C@@H](CC(C)C)C(=O)NCC(=O)N[C@@H](Cc2ccccc2)C(=O)N[C@@H](CO)C(=O)N[C@H](C(=O)N[C@@H]2CSC[C@@H](C(=O)O)NC(=O)[C@H](Cc3ccc(O)cc3)NC(=O)[C@H]([C@@H](C)CC)NC(=O)[C@H](CCCCN)NC2=O)[C@@H](C)CC)[C@@H](C)CC)NC(=O)[C@H](C(C)C)NC(=O)[C@@H]2CCCN2C1=O [Bib1β]
Rabbit erythrocytes [1]
  hemolytic activity on an agar plate: showed hemolytic activity
Rabbit erythrocytes [2]
  hemolysis in solution (hemoglobin release, absorbance at 415 nm): did not induce hemolysis
M. luteus ATCC 4698 [3]; about 10^6 CFU per mL
  time after treatment at which minimal cell counts were reached: 8 h
  killing activity in time-kill assay: bactericidal
[4]
  protection of lipid II from consumption by PBP1b: incapable of protecting lipid II
[5]
  pore formation activity in liposomes: did not show pore formation activity
[6]
  PDI of aggregates (DLS): 0.384
  size distribution of aggregates (DLS): bimodal
  average diameter of aggregates (DLS): 291 nm
[7]
  oligomerization by SDS-PAGE: oligomeric in the presence of SDS
M. luteus ATCC 4698 [8]
  membrane depolarization activity, all concentrations tested: did not show strong membrane depolarization activity

## C=C(NC(=O)[C@H](C)NC(=O)[C@@H]1CS[C@H](C)[C@H](N)C(=O)NC(=C)C(=O)N2CCC[C@H]2C(=O)N[C@@H](C)C(=O)N1)C(=O)N[C@@H](C)C(=O)N[C@@H](CCSC)C(=O)N[C@@H](CC(C)C)C(=O)N[C@@H](Cc1ccc(O)cc1)C(=O)N[C@@H](CC(C)C)C(=O)N[C@@H](CCC(N)=O)C(=O)NCC(=O)N[C@H](C(=O)NC(=CC)C(=O)N[C@H](C(=O)NC(=C)C(=O)N[C@@H](CC(C)C)C(=O)NCC(=O)N[C@@H](CC(C)C)C(=O)N[C@@H]1CSC[C@@H](C(=O)O)NC(=O)[C@H](Cc2c[nH]cn2)NC(=O)[C@H](CCSC)NC(=O)[C@H](CCCNC(=N)N)NC1=O)C(C)C)C(C)C [Bib1α]
Rabbit erythrocytes [1]
  hemolytic activity on an agar plate: showed hemolytic activity
Rabbit erythrocytes [2]
  hemolysis in solution (hemoglobin release, absorbance at 415 nm): did not induce hemolysis
M. luteus ATCC 4698 [3]
  time after which cells began to recover from treatment: 4 h
M. luteus ATCC 4698 [3]; about 10^6 CFU per mL
  killing activity in time-kill assay: bactericidal
[4]
  protection of lipid II from consumption by PBP1b: incapable of protecting lipid II
[5]; DOPC liposomes containing or lacking 0.1 mol% lipid II
  lipid II dependence of pore formation activity: somewhat enhanced by the addition of lipid II
[5]
  pore formation activity in liposomes: showed pore formation activity
[6]
  PDI of aggregates (DLS): 0.224
  average diameter of aggregates (DLS): 159 nm
[7]
  oligomerization by SDS-PAGE: oligomeric in the presence of SDS
M. luteus ATCC 4698 [8]
  membrane depolarization activity, all concentrations tested: did not show strong membrane depolarization activity
